Experiments:
Assay type in all cases: in vivo
Cyperus iria [1] = test: Indoor herbicide activity determination, post-emergence (stem and leaf spray at 2-4 leaf stage); details: 504 h, determined 21 days later, read-out: Inhibition rate of fresh weight, Cyperus iria; for inhibition at 30 g/ha: 30 g a.i./ha
How it was run: (§1)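 Potted weeds in sandy nutrient soil (pH 6.1, 1% organic matter) were grown in a constant-temperature illuminated room to the 2-4 leaf stage, then given a stem-and-leaf spray. Plants went back to the culture room once the spray had dried in shade. At 21 days, fresh weight inhibition % was calculated relative to untreated control plants.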

Digitaria sanguinalis [2] = test: as above; details: 504 h, determined 21 days later, read-out: Inhibition rate of fresh weight, Digitaria sanguinalis; for inhibition at 30 g/ha: 30 g a.i./ha
How it was run: as §1

Eclipta prostrata [3] = test: as above; details: 504 h, determined 21 days later, read-out: Inhibition rate of fresh weight, Eclipta prostrata; for inhibition at 30 g/ha: 30 g a.i./ha
How it was run: as §1

Aegilops tauschii = test: Indoor herbicide activity determination, Seed Treatment; pre-emergence (soil spray); details: read-out: Herbicidal activities (inhibition rate) Aegilops tauschii; for inhibition at 60 g/ha: 60 g a.i./ha
How it was run: (§2)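 Sow seeds into soil-filled 7 cm pots (sandy, pH 6.1, 1% organic matter) and cover them. Water from beneath, then incubate 24 h in a lit, temperature-controlled chamber. Spray the soil in a traveling tower, let it dry in shade, grow on 21 days, and weigh fresh biomass against controls.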

Cyperus iria [4] = test: as above; details: read-out: Herbicidal activities (inhibition rate) Cyperus iria; for inhibition at 60 g/ha: 60 g a.i./ha
How it was run: as §2

Digitaria sanguinalis [5] = test: as above; details: 60 g a.i./ha, read-out: Herbicidal activities (inhibition rate) Digitaria sanguinalis
How it was run: as §2

Eclipta prostrata [6] = test: as above; details: 60 g a.i./ha, read-out: Herbicidal activities (inhibition rate) Eclipta prostrata
How it was run: as §2

Alopecurus japonicus = test: as above
How it was run: as §2

Alopecurus myosuroides = test: as above
How it was run: as §2

Eleusine indica = test: as above
How it was run: as §2

Leptochloa chinensis = test: as above
How it was run: as §2

Lolium multiflorum = test: as above
How it was run: as §2

## COC(=O)[C@H]1CC[C@@H](NC(=O)[C@@]2(C(F)(F)F)CC(c3cc(F)cc(F)c3)=NO2)C1 [CK4, reference compound]
Cyperus iria [1]
  inhibition at 30 g/ha: 20 to 40%
Digitaria sanguinalis [2]
  inhibition at 30 g/ha: 20 to 40%
Eclipta prostrata [3]
  inhibition at 30 g/ha: < 20%
Aegilops tauschii
  inhibition at 60 g/ha: < 20%
Cyperus iria [4]
  inhibition at 60 g/ha: 40 to 60%
Digitaria sanguinalis [5]
  inhibition at 60 g/ha: < 20%
Eclipta prostrata [6]
  inhibition at 60 g/ha: < 20%

## O=C(O)[C@@H]1CC[C@H](NC(=O)[C@@]2(C(F)(F)F)CC(c3cc(F)cc(F)c3)=NO2)C1 [CK5, reference compound]
Cyperus iria [1]
  inhibition at 30 g/ha: 40 to 60%
Digitaria sanguinalis [2]
  inhibition at 30 g/ha: 40 to 60%
Eclipta prostrata [3]
  inhibition at 30 g/ha: < 20%
Aegilops tauschii
  inhibition at 60 g/ha: 20 to 40%
Cyperus iria [4]
  inhibition at 60 g/ha: 60 to 80%
Digitaria sanguinalis [5]
  inhibition at 60 g/ha: 60 to 80%
Eclipta prostrata [6]
  inhibition at 60 g/ha: 40 to 60%

## C=CC1(C(=O)N[C@H]2C[C@@H](C(=O)O)C2)CC(c2cc(F)cc(F)c2)=NO1 (some centres unmarked) [I-1]
Cyperus iria [1]; 60 g a.i./ha
  inhibition at 60 g/ha: 80 to 100%
Digitaria sanguinalis [2]; 60 g a.i./ha
  inhibition at 60 g/ha: 80 to 100%
Eclipta prostrata [3]; 60 g a.i./ha
  inhibition at 60 g/ha: 60 to 80%
Aegilops tauschii; 120 g a.i./ha
  inhibition at 120 g/ha: 80 to 100%
Alopecurus japonicus; Dosage 240 g a.i./ha
  Herbicidal activities, Alopecurus japonicus (inhibition rate class): A (A indicates that the inhibition rate was greater than or equal to 80% to 100%)
Alopecurus myosuroides; Dosage 240 g a.i./ha
  Herbicidal activities, Alopecurus myosuroides (inhibition rate class): A (A indicates that the inhibition rate was greater than or equal to 80% to 100%)
Cyperus iria [4]; 120 g a.i./ha
  inhibition at 120 g/ha: 80 to 100%
Eleusine indica; Dosage 240 g a.i./ha
  Herbicidal activities, Eleusine indica (inhibition rate class): A (A indicates that the inhibition rate was greater than or equal to 80% to 100%)
Leptochloa chinensis; Dosage 240 g a.i./ha
  Herbicidal activities, Leptochloa chinensis (inhibition rate class): A (A indicates that the inhibition rate was greater than or equal to 80% to 100%)
Lolium multiflorum; Dosage 240 g a.i./ha
  Herbicidal activities, Lolium multiflorum (inhibition rate class): A (A indicates that the inhibition rate was greater than or equal to 80% to 100%)

## C=C[C@]1(C(=O)N[C@H]2C[C@@H](C(=O)OC)C2)CC(c2cc(F)cc(F)c2)=NO1 [I-4]
Cyperus iria [1]
  inhibition at 30 g/ha: 80 to 100%
Digitaria sanguinalis [2]
  inhibition at 30 g/ha: 80 to 100%
Eclipta prostrata [3]
  inhibition at 30 g/ha: 60 to 80%
Alopecurus japonicus; Dosage 120 g a.i./ha
  Herbicidal activities, Alopecurus japonicus (inhibition rate class): A (A indicates that the inhibition rate was greater than or equal to 80% to 100%)
Alopecurus myosuroides; Dosage 120 g a.i./ha
  Herbicidal activities, Alopecurus myosuroides (inhibition rate class): A (A indicates that the inhibition rate was greater than or equal to 80% to 100%)
Cyperus iria [4]
  inhibition at 60 g/ha: 80 to 100%
Digitaria sanguinalis [5]
  inhibition at 60 g/ha: 80 to 100%
Eclipta prostrata [6]
  inhibition at 60 g/ha: 80 to 100%
Eleusine indica; Dosage 120 g a.i./ha
  Herbicidal activities, Eleusine indica (inhibition rate class): A (A indicates that the inhibition rate was greater than or equal to 80% to 100%)
Leptochloa chinensis; Dosage 120 g a.i./ha
  Herbicidal activities, Leptochloa chinensis (inhibition rate class): A (A indicates that the inhibition rate was greater than or equal to 80% to 100%)
Lolium multiflorum; Dosage 120 g a.i./ha
  Herbicidal activities, Lolium multiflorum (inhibition rate class): A (A indicates that the inhibition rate was greater than or equal to 80% to 100%)

## C=C[C@]1(C(=O)N[C@H]2C[C@@H](C(=O)OCC)C2)CC(c2cc(F)cc(F)c2)=NO1 [I-5]
Cyperus iria [1]
  inhibition at 30 g/ha: 80 to 100%
Digitaria sanguinalis [2]
  inhibition at 30 g/ha: 80 to 100%
Eclipta prostrata [3]
  inhibition at 30 g/ha: 40 to 60%
Aegilops tauschii
  inhibition at 60 g/ha: 80 to 100%
Alopecurus japonicus; Dosage 120 g a.i./ha
  Herbicidal activities, Alopecurus japonicus (inhibition rate class): A (A indicates that the inhibition rate was greater than or equal to 80% to 100%)
Alopecurus myosuroides; Dosage 120 g a.i./ha
  Herbicidal activities, Alopecurus myosuroides (inhibition rate class): A (A indicates that the inhibition rate was greater than or equal to 80% to 100%)
Cyperus iria [4]
  inhibition at 60 g/ha: 60 to 80%
Digitaria sanguinalis [5]
  inhibition at 60 g/ha: 80 to 100%
Eleusine indica; Dosage 120 g a.i./ha
  Herbicidal activities, Eleusine indica (inhibition rate class): A (A indicates that the inhibition rate was greater than or equal to 80% to 100%)
Leptochloa chinensis; Dosage 120 g a.i./ha
  Herbicidal activities, Leptochloa chinensis (inhibition rate class): A (A indicates that the inhibition rate was greater than or equal to 80% to 100%)
Lolium multiflorum; Dosage 120 g a.i./ha
  Herbicidal activities, Lolium multiflorum (inhibition rate class): A (A indicates that the inhibition rate was greater than or equal to 80% to 100%)

## C=C[C@]1(C(=O)N[C@H]2C=C[C@@H](C(=O)OCC(C)C)C2)CC(c2cc(F)cc(C(F)(F)F)c2)=NO1 [I-438]
Cyperus iria [1]
  inhibition at 30 g/ha: 60 to 80%
Digitaria sanguinalis [2]
  inhibition at 30 g/ha: 60 to 80%
Eclipta prostrata [3]
  inhibition at 30 g/ha: 60 to 80%
Cyperus iria [4]
  inhibition at 60 g/ha: 80 to 100%
Eclipta prostrata [6]
  inhibition at 60 g/ha: 80 to 100%
Eleusine indica; Dosage 120 g a.i./ha
  Herbicidal activities, Eleusine indica (inhibition rate class): A (A indicates that the inhibition rate was greater than or equal to 80% to 100%)
Leptochloa chinensis; Dosage 120 g a.i./ha
  Herbicidal activities, Leptochloa chinensis (inhibition rate class): A (A indicates that the inhibition rate was greater than or equal to 80% to 100%)

From patent EP4722201A1, “3-PHENYLISOXAZOLINE-5-CARBOXAMIDE COMPOUND, AND PREPARATION METHOD THEREFOR, HERBICIDAL COMPOSITION THEREOF AND USE THEREOF” (Jiangsu Flag Chemical Industry Co., Ltd, priority 2023, dated 2024)
